For twelve molecules, EC50 and IC50 results are on record in patent publication US20220153732A1, “PROTEIN SECRETION INHIBITORS” (KEZAR LIFE SCIENCES, priority 2019, published 2022).

The structures appear in SMILES notation.

Assay type in all cases: cell-based
The subject of assay [1] is human multiple myeloma cell line NCI-H929. Briefly: H929 Cell Viability Assay. As to conditions: 48 hr, NCI-H929 cells, Celltiter-Glo, read-out: 48 hr H929 Viability Celltiter-Glo: Mean EC50. Here is the method: Plates were incubated at 37° C., 5% CO2 for 48 hours. After 48 hours, Celltiter-Glo® (Promega) was added to each well and luciferase signal was quantified using Tecan Infinite M1000 Pro for cell viability determination.
For chemical structures that include one or more stereoisomers, but are illustrated without indicating stereochemistry, the assay data refers to a mixture of stereoisomers.
(ATP-based viability assays read luminescence as a measure of living cells.)

Assay [2] has as its system IL-2-FL/Gaussia Luciferase. As to the kind of experiment: Dox Induced IL2-FL-Gluc Assay. As to conditions: 24 hr, doxycycline-induced, 293FRT/TO cells; read-out: 24 hr Dox Inducible IL2FLGIuc 293FRT/TO: Mean IC50. The essentials: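 Compounds were added together with doxycycline in DMSO/media and incubated at 37° C., 5% CO2. The cells were a stably selected line carrying IL-2-FL/Gaussia luciferase under T-REx inducible control. Structures drawn without stereochemistry were tested as stereoisomer mixtures.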

Assay [3] concerns HER3-ss+4aa/Gaussia Luciferase. Briefly: Dox-Induced Her3-ss-Gluc Assay. The following applies: 24 hr, doxycycline-induced, 293FRT/TO cells; read-out: 24 hr Dox Inducible Her3(ss + 4)Gluc 293FRT/TO: Mean IC50. The gist of the method: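 Compounds, diluted in DMSO/media containing doxycycline, were incubated at 37° C., 5% CO2 with cells seeded one day earlier. The cells stably express HER3-ss+4aa/Gaussia luciferase under T-REx control. Where no stereochemistry is shown, data refer to the mixture of stereoisomers.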

Assay [4] concerns PD1-ss+10aa/Gaussia Luciferase. As to the kind of experiment: Dox-Induced PD1-ss-Gluc Assay. The following applies: 24 hr, doxycycline-induced, 293FRT/TO cells; read-out: 24 hr Dox Inducible PD1ssGluc 293FRT/TO: Mean IC50. The essentials: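 Compounds, diluted in DMSO/media with doxycycline, were added to cells plated a day earlier and kept at 37° C under 5% CO2. The cells stably express a Gaussia luciferase construct fused to PD1-ss+10aa, induced via the T-REx system. Unassigned stereochemistry means mixture data.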

The subject of assay [5] is TNFα-FL/Gaussia Luciferase. Briefly: Dox Induced TNFα-FL-Gluc Assay. As to conditions: 24 hr, doxycycline-induced, 293FRT/TO cells; read-out: 24 hr Dox Inducible TNFaFLGluc 293FRT/TO: Mean IC50. The gist of the method: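 Compounds were added in doxycycline-containing DMSO/media to cells plated the previous day and incubated at 37° C under 5% CO2. These cells stably express a TNFα-FL/Gaussia luciferase cDNA whose expression is under T-REx (Dox-inducible) control, selected with Hygromycin and Blasticidin.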

Assay [6] concerns human multiple myeloma cell line U266B1. Briefly: U266 Cell Viability Assay. The following applies: U-266, 48 hr, U266B1 cells, Celltiter-Glo, read-out: 48 hr U266 Viability Celltiter-Glo: Mean EC50. The gist of the method:
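Viability measured by CellTiter-Glo luciferase signal after 48 h compound exposure (37 °C, 5% CO2) of U266B1 cells in 384-well format. Where stereochemistry is not shown, data refer to the stereoisomer mixture.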

Regarding `CO[C@H]1CCN(c2ccccc2)[C@H]1c1csc(NC(=O)c2cccn2Cc2ccncc2)n1` [Compound A334], the figures for the EC50 in assay [1] and in assay [6] were 6470 nM and 9050 nM, respectively. Also, the IC50 in assay [2] was found to be 110 nM; in assay [3], 138 nM; in assay [4], 80 nM; in assay [5], 775 nM.
As for `COc1cnc([C@@H]2C[C@H]2c2csc(NC(=O)c3cccn3Cc3ccncc3)n2)c(F)c1` [Compound A335], the half-maximal effective concentration (EC50) is 11400 nM in assay [1] and greater than 25000 nM in assay [6]. The IC50 amounted to 752 nM in assay [2], 411 nM in assay [3], 130 nM in assay [4] and 3010 nM in assay [5].
Turning to `O=C(Nc1nc([C@H]2CCN2c2ccccc2)cs1)c1cccn1Cc1ccncc1` [Compound A336], the 50% effective concentration (EC50) in assay [1] is 17900 nM; in assay [6], greater than 25000 nM. The IC50 stood at 334 nM in assay [2], 835 nM in assay [3], 374 nM in assay [4] and 1350 nM in assay [5].
Consider `O=C(Nc1nc([C@@H]2COCCN2c2ccccc2)cs1)c1cccn1Cc1ccncc1` [Compound A337], for which the EC50 in assay [1] was 21500 nM; in assay [6] it was greater than 25000 nM. Besides, the IC50 in assay [2] turned out to be 379 nM; in assay [3], 548 nM; in assay [4], 190 nM; in assay [5] it was 2850 nM.
Take `C[C@]1(c2csc(NC(=O)c3cccn3Cc3ccncc3)n2)CCCN1c1ccccc1` [Compound A338]: the half-maximal effective concentration (EC50) is 14800 nM in assay [1] and greater than 25000 nM in assay [6]. Moreover, the IC50 in assay [2] was 345 nM; in assay [3], 264 nM; in assay [4], 205 nM; in assay [5] it was 1850 nM.
As for `O=C(Nc1nc([C@H]2CC(F)(F)CN2c2ccccc2)cs1)c1cccn1Cc1ccncc1` [Compound A339], the EC50 is 1310 nM in assay [1] and greater than 25000 nM in assay [6]. The IC50 in assay [2] was found to be 13 nM; in assay [3] it was 29 nM; in assay [4], 18 nM; in assay [5], 226 nM.
As for `CC(C)OC(C)(C)c1csc(NC(=O)c2ccccc2N2CCOCC2)n1` [Compound A340], the EC50 in assay [1] and in assay [6] was greater than 25000 nM throughout. The IC50 in assay [2], in assay [3], in assay [4] and in assay [5] was greater than 25000 nM throughout.
In the case of `N#Cc1ccc(/C=C/c2csc(NC(=O)c3cccn3Cc3ccncc3)n2)nc1` [Compound A341], the concentration for a half-maximal effect (EC50) in assay [1] and in assay [6] was greater than 25000 nM in each case. Besides, the IC50 is greater than 25000 nM in assay [2], greater than 25000 nM in assay [3], 47 nM in assay [4] and greater than 25000 nM in assay [5].
In the case of `O=C(Nc1nc(/C=C/c2ccc(F)cn2)cs1)c1cccn1Cc1ccncc1` [Compound A342], the 50% effective concentration (EC50) is 23700 nM in assay [1] and greater than 25000 nM in assay [6]. Moreover, the IC50 in assay [2] was 1400 nM; in assay [3], 952 nM; in assay [4] it was 68 nM; in assay [5], greater than 25000 nM.
Turning to `O=C(Nc1nc(/C=C/c2ccc(C(F)(F)F)cn2)cs1)c1cccn1Cc1ccncc1` [Compound A343], the half-maximal effective concentration (EC50) in assay [1] turned out to be 7180 nM; in assay [6], 15900 nM. The IC50 in assay [2] came out at 1150 nM; in assay [3], 492 nM; in assay [4] it was 17 nM; in assay [5], 3620 nM.
Regarding `O=C(Nc1nc(C2[C@@H](O)CCN2c2ccccc2)cs1)c1cccn1Cc1ccncc1` (stereo partly drawn) [Compound A344], the EC50 in assay [1] and in assay [6] was greater than 25000 nM each time. In addition, the IC50 was 1350 nM in assay [2], 2030 nM in assay [3], 971 nM in assay [4] and 8860 nM in assay [5].
As to `CO[C@@H]1CCN(c2ccccc2)C1c1csc(NC(=O)c2cccn2Cc2ccncc2)n1` (stereo partly drawn) [Compound A345], the EC50 in assay [1] was 720 nM; in assay [6], greater than 25000 nM. The IC50 turned out to be 23 nM in assay [2], 22 nM in assay [3], 11 nM in assay [4] and 100 nM in assay [5].

What is called EC50 is the concentration that produces a half-maximal response.
